# Patent US20240327334A1, “Covalent Inhibitors As Antiviral Agents” (Enanta Pharmaceuticals, Inc., priority 2022, published 2024)
# Biological target: SARS-CoV-2 Papain-like (PLpro) protease (Severe acute respiratory syndrome coronavirus 2, UniProt P0DTD1)
# Test: SARS-CoV-2 Papain-like (PLpro) protease biochemical enzyme inhibition assay (ubiquitin-fluorophore substrate, Ub-R110)
# Settings: Ub-R110 substrate; run in duplicate; read-out: PLpro IC50
row,SMILES,IC50 [nM]
1,O=C(NC/C=C/c1ncccn1)C(=O)NCc1ccccc1C(=O)NC1(c2ccc3ccccc3c2)CC1 [Example 582],< 100
2,COC(=O)C#CCCNC(=O)C(=O)NCc1ccccc1C(=O)N[C@H](C)c1cccc2ccccc12 [Example 8],< 100
3,N#CCNC(=O)C(=O)NCc1ccccc1C(=O)NC1(c2cc(Cl)cc(-n3cccn3)c2)CC1 [Example 480],< 100
4,N#CCNC(=O)C(=O)NCc1ccccc1C(=O)NC1(c2ccc3sc4ccccc4c3c2)CC1 [Example 369],< 100
5,O=C(NCC#Cc1nccs1)C(=O)NCc1ccccc1C(=O)NC1(c2cc(Cl)cc(-c3cc4ccccc4s3)c2)CC1 [Example 443],< 100
6,Cn1cc2cc(C3(NC(=O)c4ccccc4CNC(=O)C(=O)NCC4CN(C#N)C4)CC3)ccc2n1 [Example 432],100 to 1000
7,C#CCNC(=O)C(=O)NCc1ccccc1C(=O)NC1(c2ccc(F)c(-c3cnn(C4CC4)c3)c2)CC1 [Example 225],< 100
8,Cc1nn(C)cc1-c1cc(Cl)cc(C2(NC(=O)c3ccccc3CNC(=O)C(=O)NCC#Cc3nccs3)CC2)c1 [Example 486],< 100
9,C#CCNC(=O)C(=O)NCc1ccccc1C(=O)NC1(c2cc(-c3cnn(C(F)F)c3)cc(C(F)(F)F)c2)CC1 [Example 473],100 to 1000
10,Cc1nn(C2CC2)c(C)c1-c1cc(Cl)cc(C2(NC(=O)c3ccccc3CNC(=O)C(=O)NCC#N)CC2)c1 [Example 130],< 100
11,N#CCNC(=O)C(=O)NCc1ccccc1C(=O)NC1(c2cc(F)cc(Br)c2)CC1 [Example 218],100 to 1000
12,O=C(NCC#Cc1ccc(F)cn1)C(=O)NCc1ccccc1C(=O)NC1(c2ccc3ccccc3c2)CC1 [Example 192],< 100
13,C#C[C@H](C)NC(=O)C(=O)NCc1ccccc1C(=O)NC1(c2cccc3ccccc23)CC1 [Example 156],< 100
14,C[C@@H](NC(=O)c1ccccc1CNC(=O)C(=O)NCC#N)c1cccc2ccccc12 [Example 6],< 100
15,O=C(NCC#Cc1nccs1)C(=O)NCc1ccccc1C(=O)NC1(c2cc(Cl)cc(-c3cnco3)c2)CC1 [Example 449],< 100
16,N#CCNC(=O)C(=O)NCc1ccccc1C(=O)NC1(c2ccc(F)c(-c3cccs3)c2)CC1 [Example 219],< 100
17,COc1cccc(C#CCNC(=O)C(=O)NCc2ccccc2C(=O)NC2(c3ccc4ccccc4c3)CC2)n1 [Example 186],< 100
18,N#CCNC(=O)C(=O)NCc1ccccc1C(=O)NC1(c2cc(Cl)cc(-c3cnco3)c2)CC1 [Example 451],< 100
19,C#CCNC(=O)C(=O)NCc1ccccc1C(=O)NC1(c2ccc3c(cnn3C)c2)CC1 [Example 344],< 100
20,N#CCNC(=O)C(=O)NCc1ccccc1C(=O)NC1(c2cc(C#N)cc(-c3cccs3)c2)CC1 [Example 127],< 100
21,C#Cc1cc(C(F)(F)F)cc(C2(NC(=O)c3ccccc3CNC(=O)C(=O)NCC#N)CC2)c1 [Example 70],100 to 1000
22,O=C(NCC#Cc1nccs1)C(=O)NCc1ccccc1C(=O)NC1(c2cc(F)cc(-c3cnn(C4COC4)c3)c2)CC1 [Example 253],< 100
23,N#CCNC(=O)C(=O)NCc1ccccc1C(=O)NC1(c2cc(-c3cccs3)cc(Cl)c2F)CC1 [Example 304],< 100
24,N#CCNC(=O)C(=O)NCc1ccccc1C(=O)NC1(c2cc(N3CC(O)C3)cc3ccccc23)CC1 [Example 330],< 100
25,N#C/C=C/CNC(=O)C(=O)NCc1ccccc1C(=O)NC1(c2cc(Br)cc3ccccc23)CC1 [Example 152],< 100
26,COc1cc(C2(NC(=O)c3ccccc3CNC(=O)C(=O)N[C@@H](C)C#Cc3ncccn3)CC2)cc2cn(C3CC3)nc12 [Example 532],< 100
27,O=C(/C=C/CNC(=O)C(=O)NCc1ccccc1C(=O)NC1(c2cccc3ccccc23)CC1)Nc1ccccc1 [Example 561],100 to 1000
28,N#CCNC(=O)C(=O)NCc1ccccc1C(=O)NC1(c2cc(-c3cnn(CC(F)F)c3)cc3ccccc23)CC1 [Example 286],< 100
29,C#CCNC(=O)C(=O)NCc1ccccc1C(=O)NC1(c2cccc3nc(Cl)ccc23)CC1 [Example 387],< 100
30,N#CCNC(=O)C(=O)NCc1ccccc1C(=O)NC1(c2ccnc3cc(Cl)ccc23)CC1 [Example 423],< 100

# System: SARS-CoV-2 replicon
# Test: microbe, parasite or virus in culture
# Format: cell-based
# Settings: Severe acute respiratory syndrome coronavirus 2, Huh-7
row,SMILES,EC50 [nM]
1,O=C(NC/C=C/c1ncccn1)C(=O)NCc1ccccc1C(=O)NC1(c2ccc3ccccc3c2)CC1 [Example 582],< 1000
2,COC(=O)C#CCCNC(=O)C(=O)NCc1ccccc1C(=O)N[C@H](C)c1cccc2ccccc12 [Example 8],< 1000
3,N#CCNC(=O)C(=O)NCc1ccccc1C(=O)NC1(c2cc(Cl)cc(-n3cccn3)c2)CC1 [Example 480],1000 to 10000
4,N#CCNC(=O)C(=O)NCc1ccccc1C(=O)NC1(c2ccc3sc4ccccc4c3c2)CC1 [Example 369],1000 to 10000
5,O=C(NCC#Cc1nccs1)C(=O)NCc1ccccc1C(=O)NC1(c2cc(Cl)cc(-c3cc4ccccc4s3)c2)CC1 [Example 443],< 1000
6,Cn1cc2cc(C3(NC(=O)c4ccccc4CNC(=O)C(=O)NCC4CN(C#N)C4)CC3)ccc2n1 [Example 432],1000 to 10000
7,C#CCNC(=O)C(=O)NCc1ccccc1C(=O)NC1(c2ccc(F)c(-c3cnn(C4CC4)c3)c2)CC1 [Example 225],< 1000
8,Cc1nn(C)cc1-c1cc(Cl)cc(C2(NC(=O)c3ccccc3CNC(=O)C(=O)NCC#Cc3nccs3)CC2)c1 [Example 486],< 1000
9,C#CCNC(=O)C(=O)NCc1ccccc1C(=O)NC1(c2cc(-c3cnn(C(F)F)c3)cc(C(F)(F)F)c2)CC1 [Example 473],1000 to 10000
10,Cc1nn(C2CC2)c(C)c1-c1cc(Cl)cc(C2(NC(=O)c3ccccc3CNC(=O)C(=O)NCC#N)CC2)c1 [Example 130],1000 to 10000
11,N#CCNC(=O)C(=O)NCc1ccccc1C(=O)NC1(c2cc(F)cc(Br)c2)CC1 [Example 218],> 10000
12,O=C(NCC#Cc1ccc(F)cn1)C(=O)NCc1ccccc1C(=O)NC1(c2ccc3ccccc3c2)CC1 [Example 192],< 1000
13,C#C[C@H](C)NC(=O)C(=O)NCc1ccccc1C(=O)NC1(c2cccc3ccccc23)CC1 [Example 156],< 1000
14,C[C@@H](NC(=O)c1ccccc1CNC(=O)C(=O)NCC#N)c1cccc2ccccc12 [Example 6],1000 to 10000
15,O=C(NCC#Cc1nccs1)C(=O)NCc1ccccc1C(=O)NC1(c2cc(Cl)cc(-c3cnco3)c2)CC1 [Example 449],< 1000
16,N#CCNC(=O)C(=O)NCc1ccccc1C(=O)NC1(c2ccc(F)c(-c3cccs3)c2)CC1 [Example 219],1000 to 10000
17,COc1cccc(C#CCNC(=O)C(=O)NCc2ccccc2C(=O)NC2(c3ccc4ccccc4c3)CC2)n1 [Example 186],< 1000
18,N#CCNC(=O)C(=O)NCc1ccccc1C(=O)NC1(c2cc(Cl)cc(-c3cnco3)c2)CC1 [Example 451],1000 to 10000
19,C#CCNC(=O)C(=O)NCc1ccccc1C(=O)NC1(c2ccc3c(cnn3C)c2)CC1 [Example 344],< 1000
20,N#CCNC(=O)C(=O)NCc1ccccc1C(=O)NC1(c2cc(C#N)cc(-c3cccs3)c2)CC1 [Example 127],1000 to 10000
21,C#Cc1cc(C(F)(F)F)cc(C2(NC(=O)c3ccccc3CNC(=O)C(=O)NCC#N)CC2)c1 [Example 70],< 1000
22,O=C(NCC#Cc1nccs1)C(=O)NCc1ccccc1C(=O)NC1(c2cc(F)cc(-c3cnn(C4COC4)c3)c2)CC1 [Example 253],< 1000
23,N#CCNC(=O)C(=O)NCc1ccccc1C(=O)NC1(c2cc(-c3cccs3)cc(Cl)c2F)CC1 [Example 304],1000 to 10000
24,N#CCNC(=O)C(=O)NCc1ccccc1C(=O)NC1(c2cc(N3CC(O)C3)cc3ccccc23)CC1 [Example 330],1000 to 10000
25,N#C/C=C/CNC(=O)C(=O)NCc1ccccc1C(=O)NC1(c2cc(Br)cc3ccccc23)CC1 [Example 152],< 1000
26,COc1cc(C2(NC(=O)c3ccccc3CNC(=O)C(=O)N[C@@H](C)C#Cc3ncccn3)CC2)cc2cn(C3CC3)nc12 [Example 532],< 1000
27,O=C(/C=C/CNC(=O)C(=O)NCc1ccccc1C(=O)NC1(c2cccc3ccccc23)CC1)Nc1ccccc1 [Example 561],1000 to 10000
28,N#CCNC(=O)C(=O)NCc1ccccc1C(=O)NC1(c2cc(-c3cnn(CC(F)F)c3)cc3ccccc23)CC1 [Example 286],< 1000
29,C#CCNC(=O)C(=O)NCc1ccccc1C(=O)NC1(c2cccc3nc(Cl)ccc23)CC1 [Example 387],< 1000
30,N#CCNC(=O)C(=O)NCc1ccccc1C(=O)NC1(c2ccnc3cc(Cl)ccc23)CC1 [Example 423],1000 to 10000
